Experimental data reported in the NIST ThermoML archive (doi:10.1016/j.jct.2018.03.027).

Assay: mn = molality of the nth substance listed, in mol/kg
Details: 100 kPa, Liquid, Pycnometric method

O=C([O-])[O-].[Li+].[Li+] [lithium carbonate] + O
Details	mass density [kg/m3]
283.15 K, m1 = 0.1933	1007.2
298.15 K, m1 = 0.1738	1003.8
303.15 K, m1 = 0.1676	1002.2
313.15 K, m1 = 0.1558	998.3
323.15 K, m1 = 0.1454	993.7
333.15 K, m1 = 0.1352	988.5
343.15 K, m1 = 0.1251	982.6
353.15 K, m1 = 0.1149	976.2
363.15 K, m1 = 0.106	969.4
368.15 K, m1 = 0.1015	965.2
